Common to all, as to type: cell-based, human
The subject of test [1] is platelet aggregation in platelet-rich plasma, agonist ADP. Description: ADP-induced platelet aggregation in platelet-rich plasma (aggregometer). The conditions noted are these: ADP 10 μmol/L; for IC50: Homo sapiens, Platelet. On the procedure: (§1) The experimental protocol described below was devised to determine the IC50 values of compounds isolated as described in 1.1.3. Crude bioassays to evaluate inhibition of platelet aggregation in vitro were performed on some crude extracts (data not shown) to help select fine fractions/compounds identified by HPLC for functional activity. This approach was considered necessary to avoid the need to assay each and ever compound (the would be thousands) in the fruit extracts.
(§2) An IC50 value represents the amount of a compound, in mg, required to inhibit by 50% the platelet aggregation induced under standardised conditions in 1 mL platelet-rich plasma, in comparison with control samples.
(§3) Blood for in vitro studies was collected from drug-free, healthy human volunteers, both male and female, aged 18-60 years, with normal platelet function. Subjects declared that they had not consumed drugs or supplements known to affect platelet function for a minimum of 10 days before providing a blood sample. Blood was collected after single venepuncture to an antecubital vein through siliconized needles into plastic citrated blood collection tubes (Sarstedt Monovettes, final concentration sodium citrate, 13 mmol/L). All blood was maintained at 37° C. from the time of blood sampling.
(§4) Platelet-rich plasma (PRP) was obtained by centrifugation of citrated blood for 15 minutes at 200×g, and was adjusted with platelet-poor plasma to a standard platelet number of 320±20×10^9/L prior to use. PRP was used for platelet function measurements within two hours.
(§5) The following agonists were used for platelet function measurements. Adenosine diphosphate (ADP), final concentration 10 μmol/L; collagen, final concentration 5 mg/L; arachidonic acid, final concentration […] (all from Helena Biosciences, Sunderland, UK); thrombin receptor-activating peptide (TRAP), final concentration […] (Sigma-Aldrich, Poole, UK). Agonists were prepared from stock solutions immediately before use, diluting into warmed physiological saline (0.9% NaCI).
(§6) Individual platelet inhibitors were prepared at a concentration of between 500 g/L and 100 g/L in either physiological saline, ultra-pure methanol or ultra-pure DMSO (Sigma-Aldrich, Poole, UK) and stored frozen until required. Stock solutions were then diluted with physiological saline immediately prior to use.
(§7) 450 μL PRP was incubated with 50 μL diluted inhibitor solution at 37° C. for 10 minutes, in low-retention epindorrfs. Inhibitor solutions were diluted such that the final concentration of methanol or DMSO in the PRP sample never exceeded 2%. Suitable control samples, containing 50 μL physiological saline matched for methanol or DMSO content as appropriate, were incubated simultaneously. For each inhibitor compound, 5 incubation concentrations were used; final concentrations of 0.05 mg/mL, 0.10 mg/mL, 1.00 mg/mL, 5.00 mg/mL and 10 mg/mL were used as standard.
(§8) After incubation with platelet inhibitors, PRP samples were transferred to glass cuvettes and the extent of aggregation induced by either ADP, collagen, TRAP or arachidonic acid was monitored over 10 minutes on a platelet aggregometer (PACKS 4, Helena Biosciences, Sunderland, UK). A control sample was run with each sample set. From the aggregation curves generated, the area under the curve was calculated for each PRP sample, and the inhibition of aggregation achieved at each inhibitor concentration was calculated by comparing the area under the curve for these PRP samples with that of the control sample. The inhibition of aggregation was expressed as % inhibition, compared to control, and from the 6 data points obtained per inhibitor compound, a dose-response curve was constructed. This curve was then used to predict the IC50 value for that inhibitor compound, as shown in 1.2, Results, and FIG. 1.
(§9) For each blood sample obtained, 6-point dose-response curves for 2 different inhibitory compounds could be generated. […]

The test system of test [2] is platelet aggregation in platelet-rich plasma, agonist collagen. Briefly: Collagen-induced platelet aggregation in platelet-rich plasma (aggregometer). The settings on record: collagen 5 mg/L; for IC50: Homo sapiens, Platelet. On the procedure: as §1, §2, §3, §4, §5, §6, §7, §8, §9
Test [3] deals with platelet aggregation in platelet-rich plasma, agonist thrombin receptor-activating peptide (TRAP). Description: TRAP-induced platelet aggregation in platelet-rich plasma (aggregometer). The conditions noted are these: TRAP 25 nmol/L; for IC50: Homo sapiens, Platelet. How it is done: as §1, §2, §3, §4, §5, §6, §7, §8, §9
The subject of test [4] is platelet aggregation in platelet-rich plasma, agonist arachidonic acid. Description: Arachidonic acid-induced platelet aggregation in platelet-rich plasma (aggregometer). The conditions noted are these: arachidonic acid 500 U/L; for IC50: Homo sapiens, Platelet. How it is done:
as §1, §2, §3, §4, §5, §6, §7, §8, §9

Setting [5] is: Table 3, mg needed for 50% inhibition in 1 mL PRP, compounds isolated from tomato extract.
Where [6] appears, read: Table 4, compounds from sources other than tomatoes, mg per 1 mL PRP.

Broadly, the IC50 is the concentration that gives 50% inhibition.

In brackets after ≈: the same amount, converted by molar mass.

As to `Nc1ncnc2c1ncn2[C@@H]1O[C@H](CO)[C@@H](O)[C@H]1O` [Compound 2, Adenosine], the IC50 in test [1] (setting [5]) is 0.4 mg/mL (≈ 1.5 mM); in test [2] (setting [5]), 0.82 mg/mL (≈ 3.07 mM); in test [3] (setting [5]) it was over 50 mg/mL.

For the compound `O=c1ccn([C@@H]2O[C@H](CO)[C@@H](O)[C@H]2O)c(=O)[nH]1` [Compound 3, Uridine], the IC50 in test [3] (setting [5]) is over 50 mg/mL.

On to `Nc1nc2c(ncn2[C@@H]2O[C@H](CO)[C@@H](O)[C@H]2O)c(=O)[nH]1` [Compound 4, Guanosine], for which the IC50 in test [1] (setting [5]) is 0.25 mg/mL (≈ 0.883 mM); in test [2] (setting [5]), 0.53 mg/mL (≈ 1.87 mM); in test [4] (setting [5]), 0.91 mg/mL (≈ 3.21 mM).

For the compound `Nc1ncnc2c1ncn2[C@@H]1O[C@H](CO)[C@@H](OP(=O)(O)O)[C@H]1O` [Compound 5, Adenosine 3′-monophospate], in test [1] (setting [5]), the “IC50 ADP” value was determined as 0.12 mg. Moreover, the “IC50 Collagen” value in test [2] (setting [5]) was 0.28 mg. For the same compound, in test [3] (setting [5]), the “IC50 TRAP” value worked out at 24.51 mg. Besides, the “IC50 AA” value in test [4] (setting [5]) was determined as 2.41 mg.

With `Nc1ncnc2c1ncn2[C@@H]1O[C@H](COP(=O)(O)O)[C@@H](O)[C@H]1O` [Compound 6, Adenosine 5′-monophospate], in test [1] (setting [5]), the “IC50 ADP” value stood at 0.12 mg. The “IC50 Collagen” value in test [2] (setting [5]) was 0.28 mg. Moreover, the “IC50 TRAP” value in test [3] (setting [5]) worked out at 24.51 mg. Besides, the “IC50 AA” value in test [4] (setting [5]) is recorded as 2.41 mg.

In the case of `O=C(/C=C/c1ccc(O)c(O)c1)O[C@@H]1C[C@](O)(C(=O)O)C[C@@H](O)[C@H]1O` [Compound 14, Chlorogenic acid], the IC50 in test [1] (setting [5]) is 10.1 mg/mL (≈ 28.4 mM); in test [2] (setting [5]), 10.1 mg/mL (≈ 28.5 mM); in test [3] (setting [5]), 1.1 mg/mL (≈ 3.1 mM); in test [4] (setting [5]), 0.77 mg/mL (≈ 2.17 mM).

With `O=C(O)c1ccccc1` [Compound 20, Benzoic acid], the IC50 in test [1] (setting [5]) was found to be 25.1 mg/mL (≈ 206 mM); in test [2] (setting [5]) it was 17.7 mg/mL (≈ 145 mM); in test [3] (setting [5]), 18.2 mg/mL (≈ 149 mM); in test [4] (setting [5]) it was 15.5 mg/mL (≈ 127 mM).

On to `O=C(O)C=Cc1ccccc1` [Compound 22, Cinnamic acid], for which the IC50 was found to be 26.1 mg/mL (≈ 176 mM) in test [1] (setting [6]); 8.76 mg/mL (≈ 59.1 mM) in test [2] (setting [6]); 18.2 mg/mL (≈ 123 mM) in test [3] (setting [6]); 0.22 mg/mL (≈ 1.48 mM) in test [4] (setting [5]); 16.1 mg/mL (≈ 109 mM) in test [4] (setting [6]).

`C[C@@H]1O[C@@H](OC[C@H]2O[C@@H](Oc3c(-c4ccc(O)c(O)c4)oc4cc(O)cc(O)c4c3=O)[C@H](O)[C@@H](O)[C@@H]2O)[C@H](O)[C@H](O)[C@H]1O` [Compound 27, Rutin]: the IC50 in test [4] (setting [5]) turned out to be 0.41 mg/mL (≈ 0.672 mM).

As to `O=c1c(O)c(-c2ccc(O)c(O)c2)oc2cc(O)cc(O)c12` [Compound 30, Quercetin], the IC50 in test [1] (setting [5]) and in test [2] (setting [5]) was over 50 mg/mL in each case.

`O=c1c(O)c(-c2ccc(O)cc2)oc2cc(O)cc(O)c12` [Compound 31, Kaempferol]: the 50% inhibitory concentration (IC50) in test [1] (setting [5]) and in test [2] (setting [5]) was over 50 mg/mL each time.

As to `O=C1C[C@@H](c2ccc(O)cc2)Oc2cc(O)cc(O)c21` [Compound 32, Naringenin], the IC50 in test [1] (setting [5]) and in test [2] (setting [5]) was over 50 mg/mL in each case.

With `O=C(O)c1cc(O)c(O)c(O)c1` [Gallic acid], the IC50 in test [1] (setting [6]) came to 20.2 mg/mL (≈ 119 mM); in test [2] (setting [6]), 14.4 mg/mL (≈ 84.5 mM); in test [3] (setting [6]) it was 18.9 mg/mL (≈ 111 mM); in test [4] (setting [6]), 14.4 mg/mL (≈ 84.9 mM).

For the compound `Nc1nc2c(ncn2[C@@H]2O[C@H](COP(=O)(O)O)[C@@H](O)[C@H]2O)c(=O)[nH]1` [Guanosine 5′-monophosphate], the IC50 is 0.1 mg/mL (≈ 0.275 mM) in test [1] (setting [6]), 0.31 mg/mL (≈ 0.853 mM) in test [2] (setting [6]), 20.1 mg/mL (≈ 55.4 mM) in test [3] (setting [6]) and 0.36 mg/mL (≈ 0.991 mM) in test [4] (setting [6]).

Regarding `OC[C@H]1O[C@@H](n2cnc3c(O)ncnc32)[C@H](O)[C@@H]1O` [Inosine], the IC50 is 3.5 mg/mL (≈ 13 mM) in test [1] (setting [6]), 9.3 mg/mL (≈ 34.7 mM) in test [2] (setting [6]) and over 50 mg/mL in test [3] (setting [6]).

For `O=c1cc(-c2ccc(O)c(O)c2)oc2cc(O)cc(O)c12` [Luteolin], the IC50 in test [1] (setting [6]) is over 50 mg/mL; in test [2] (setting [6]), over 50 mg/mL; in test [3] (setting [6]), 26.2 mg/mL (≈ 91.5 mM); in test [4] (setting [6]) it was 5.18 mg/mL (≈ 18.1 mM).

Turning to `O=c1c(O)c(-c2cc(O)c(O)c(O)c2)oc2cc(O)cc(O)c12` [Myricetin], the IC50 was determined as 22.1 mg/mL (≈ 69.6 mM) in test [1] (setting [6]), 24.6 mg/mL (≈ 77.3 mM) in test [2] (setting [6]), 12.9 mg/mL (≈ 40.6 mM) in test [3] (setting [6]) and 0.22 mg/mL (≈ 0.691 mM) in test [4] (setting [6]).

Regarding `O=C(O)c1ccc(O)c(O)c1` [Protocatechuic acid], the IC50 was determined as 30.2 mg/mL (≈ 196 mM) in test [1] (setting [6]), 23.7 mg/mL (≈ 154 mM) in test [2] (setting [6]), 30.8 mg/mL (≈ 200 mM) in test [3] (setting [6]) and 25.6 mg/mL (≈ 166 mM) in test [4] (setting [6]).

For `C[C@@H]1O[C@@H](Oc2c(-c3ccc(O)c(O)c3)oc3cc(O)cc(O)c3c2=O)[C@H](O)[C@H](O)[C@H]1O` [Quercitrin], the IC50 was over 50 mg/mL in test [1] (setting [6]), over 50 mg/mL in test [2] (setting [6]), 16 mg/mL (≈ 35.6 mM) in test [3] (setting [6]) and 12 mg/mL (≈ 26.8 mM) in test [4] (setting [6]).

In the case of `COc1cc(/C=C/C(=O)O)cc(OC)c1O` [Sinapic acid], the concentration for half-maximal inhibition (IC50) in test [1] (setting [6]) stood at 26.1 mg/mL (≈ 116 mM); in test [2] (setting [6]), 24.9 mg/mL (≈ 111 mM); in test [3] (setting [6]), 30.4 mg/mL (≈ 135 mM); in test [4] (setting [6]) it was 24.8 mg/mL (≈ 110 mM).

`COc1cc(C(=O)O)cc(OC)c1O` [Syringic acid]: the IC50 in test [1] (setting [6]) is 37.2 mg/mL (≈ 188 mM); in test [2] (setting [6]), 30.8 mg/mL (≈ 155 mM); in test [3] (setting [6]) it was 28.3 mg/mL (≈ 143 mM); in test [4] (setting [6]) it was 22.5 mg/mL (≈ 113 mM).

Turning to `O=C(O)/C=C/c1ccccc1O` [o-Coumaric acid], the concentration for half-maximal inhibition (IC50) stood at 32.2 mg/mL (≈ 196 mM) in test [1] (setting [6]), 28.9 mg/mL (≈ 176 mM) in test [2] (setting [6]), 17.4 mg/mL (≈ 106 mM) in test [3] (setting [6]) and 9.48 mg/mL (≈ 57.7 mM) in test [4] (setting [6]).

As to Naringin [Compound 26], the “IC50 ADP” value in test [1] (setting [5]) came out at 28.1 mg. The “IC50 Collagen” value in test [2] (setting [5]) was determined as 29.55 mg. In addition, in test [3] (setting [5]), the “IC50 TRAP” value came to 9.13 mg. Also, the “IC50 AA” value in test [4] (setting [5]) is recorded as 0.31 mg.

With Quercetin-3-O-glycoside [Compound 23], in test [1] (setting [5]), the “IC50 ADP” value came to 25.18 mg. For the same compound, in test [2] (setting [5]), the “IC50 Collagen” value was found to be 28.43 mg. In addition, the “IC50 TRAP” value in test [3] (setting [5]) is recorded as 12.06 mg. Also, the “IC50 AA” value in test [4] (setting [5]) is given as 0.19 mg.

The record behind these values is patent publication US20110212913A1, “THERAPEUTIC COMPOSITIONS COMPRISING PHENOLIC ACIDS FOR TREATING CONDITIONS RELATED TO INAPPROPRIATE PLATELET AGGREGATION” (PROVEXIS NATURAL PRODUCTS LIMITED, priority 2008, published 2011).
